# Data published in US9382245B2, “Compounds and methods for treating HIV infections” (priority 2013, dated 2016).
# Read-outs that look alike come from different tables or passages of the source.
# Key:
# human MT-2 T-cells = conditions: human
# in vitro = conditions: human
# [1] = Aqueous solubility, shake-flask procedure; type: physicochemical; conditions: Britton-Robinson buffer, 25 °C, pH 6.5, aqueous buffer, thermodynamic from solid
# Experimental: Poor solubility, which has been a problem for many NNRTIs, often leads too low bioavailability, difficulties in formulation, and high dosages.^6,32,33 The issue reflects the hydrophobic nature of the NNRTI binding site. In the design of the catechol diethers, attention was paid to having both good potency and aqueous solubility. In our laboratory, solubilities are measured using a shake-flask procedure.^6,34 The compounds are dissolved in Britton-Robinson buffer and stirred in vials for 48 hours at 25° C. The pH of the buffer solutions is 6.5 as measured by a Corning General Purpose pH Combination probe (4136L21).
SMILES,CC50 (human MT-2 T-cells),CC50 (in vitro),other results
"N#Cc1cc2c(Oc3ccc(F)cc3OCCn3ccc(=O)[nH]c3=O)cccc2o1 [12d, 4-(2-(2-(2,4-dioxo-3,4-dihydropyrimidin-1(2H)-yl)ethoxy)-4-fluorophenoxy)benzofuran-2-carbonitrile]",> 100 µM,> 100 µM,–
"N#Cc1ccc2c(Oc3ccc(F)cc3OCCn3ccc(=O)[nH]c3=O)cccc2c1 [14i, 5-(2-(2-(2,4-dioxo-3,4-dihydropyrimidin-1(2H)-yl)ethoxy)-4-fluorophenoxy)-2-naphthonitrile]",> 100 µM,> 100 µM,–
"O=c1ccn(CCOc2ccccc2Oc2cccc3cc(Cl)ccc23)c(=O)[nH]1 [14c, 1-(2-(2-((6-chloronaphthalen-1-yl)oxy)phenoxy)ethyl)pyrimidine-2,4(1H,3H)-dione]",> 100 µM,–,–
"N#Cc1ccc2c(Oc3ccc(F)cc3OCCn3ccc(=O)[nH]c3=O)cc(Cl)cc2c1 [14g, 7-chloro-5-(2-(2-(2,4-dioxo-3,4-dihydropyrimidin-1(2H)-yl)ethoxy)-4-fluorophenoxy)-2-naphthonitrile]",16 µM,–,–
"N#Cc1cc2c(Oc3ccccc3OCCn3ccc(=O)[nH]c3=O)cccn2c1 [10b, 8-(2-(2-(2,4-dioxo-3,4-dihydropyrimidin-1(2H)-yl)ethoxy)phenoxy)indolizine-2-carbonitrile]",> 100 µM,> 100 µM,–
"N#Cc1cc2c(Oc3ccccc3OCCn3ccc(=O)[nH]c3=O)cccc2o1 [12a, 4-(2-(2-(2,4-dioxo-3,4-dihydropyrimidin-1(2H)-yl)ethoxy)phenoxy)benzofuran-2-carbonitrile]",> 100 µM,> 100 µM,–
"N#Cc1cc2c(Oc3ccc(F)cc3OCCn3ccc(=O)[nH]c3=O)cc(Cl)cn2c1 [10i, 6-chloro-8-(2-(2-(2,4-dioxo-3,4-dihydropyrimidin-1(2H)-yl)ethoxy)-4-fluorophenoxy)indolizine-2-carbonitrile]",15 µM,–,–
"Cc1cc2c(Oc3ccccc3OCCn3ccc(=O)[nH]c3=O)cccc2[nH]1 [8c, 1-(2-(2-((2-methyl-1H-indol-4-yl)oxy)phenoxy)ethyl)pyrimidine-2,4(1H,3H)-dione]",–,15 µM,–
"N#Cc1cc2c(Oc3cc(F)ccc3OCCn3ccc(=O)[nH]c3=O)cccn2c1 [10j, 8-(2-(2-(2,4-dioxo-3,4-dihydropyrimidin-1(2H)-yl)ethoxy)-5-fluorophenoxy)indolizine-2-carbonitrile]",–,35 µM,–
"N#Cc1ccc2c(Oc3ccccc3OCCn3ccc(=O)[nH]c3=O)cc(Cl)cc2c1 [14f, 7-chloro-5-(2-(2-(2,4-dioxo-3,4-dihydropyrimidin-1(2H)-yl)ethoxy)phenoxy)-2-naphthonitrile]",24 µM,–,–
"N#Cc1cc2c(Oc3ccc(Cl)cc3OCCn3ccc(=O)[nH]c3=O)cccc2o1 [12h, 4-(4-chloro-2-(2-(2,4-dioxo-3,4-dihydropyrimidin-1(2H)-yl)ethoxy)phenoxy)benzofuran-2-carbonitrile]",–,7 µM,–
"N#Cc1ccc2c(Oc3ccc(F)cc3OCCn3ccc(=O)[nH]c3=O)cc(F)cc2c1 [14l, 5-(2-(2-(2,4-dioxo-3,4-dihydropyrimidin-1(2H)-yl)ethoxy)-4-fluorophenoxy)-7-fluoro-2-naphthonitrile]",> 100 µM,> 100 µM,–
"O=c1ccn(CCOc2cc(Cl)ccc2Oc2cccc3occc23)c(=O)[nH]1 [12f, 1-(2-(2-(benzofuran-4-yloxy)-5-chlorophenoxy)ethyl)pyrimidine-2,4(1H,3H)-dione]",–,19 µM,–
"Cc1cc(Oc2ccccc2OCCn2ccc(=O)[nH]c2=O)c2cc(C#N)oc2c1 [12b, 4-(2-(2-(2,4-dioxo-3,4-dihydropyrimidin-1(2H)-yl)ethoxy)phenoxy)-6-methylbenzofuran-2-carbonitrile]",–,> 100 µM,–
"O=c1ccn(CCOc2cc(Cl)ccc2Oc2cccc3ccoc23)c(=O)[nH]1 [13a, 1-(2-(2-(benzofuran-7-yloxy)-5-chlorophenoxy)ethyl)pyrimidine-2,4(1H,3H)-dione]",–,50 µM,–
"N#Cc1ccc2c(Oc3ccc(Cl)cc3OCCn3ccc(=O)[nH]c3=O)cc(F)cc2c1 [14m, 5-(4-chloro-2-(2-(2,4-dioxo-3,4-dihydropyrimidin-1(2H)-yl)ethoxy)phenoxy)-7-fluoro-2-naphthonitrile]",18 µM,–,–
"Cc1cc(Oc2ccccc2OCCn2ccc(=O)[nH]c2=O)c2cc(C#N)cn2c1 [10c, 8-(2-(2-(2,4-dioxo-3,4-dihydropyrimidin-1(2H)-yl)ethoxy)phenoxy)-6-methylindolizine-2-carbonitrile]",–,3 µM,–
"N#Cc1cc2c(Oc3ccccc3OCCn3ccc(=O)[nH]c3=O)cccc2[nH]1 [8d, 4-(2-(2-(2,4-dioxo-3,4-dihydropyrimidin-1(2H)-yl)ethoxy)phenoxy)-1H-indole-2-carbonitrile]",–,72 µM,–
"N#C/C=C/c1cc(Cl)cc(Oc2ccccc2OCCn2ccc(=O)[nH]c2=O)c1 [1c, (E)-3-(3-chloro-5-(2-(2-(2,4-dioxo-3,4-dihydropyrimidin-1(2H)-yl)ethoxy)phenoxy)phenyl)acrylonitrile]",18 µM,–,"solubility at 48 h ([1]; Table 2, pH 6.5, Britton-Robinson buffer, 48 hours at 25° C., read-out: S, aqueous solubility): 510 µg/mL; solubility at 48 h ([1]; shake-flask, pH 6.5, read-out: aqueous solubility): 510 µg/mL"

SMILES,CC50 (human MT-2 T-cells),CC50 (in vitro),other results
"N#Cc1ccc2c(Oc3ccccc3OCCn3ccc(=O)[nH]c3=O)cc(F)cc2c1 [14k, 5-(2-(2-(2,4-dioxo-3,4-dihydropyrimidin-1(2H)-yl)ethoxy)phenoxy)-7-fluoro-2-naphthonitrile]",> 100 µM,> 100 µM,–
"N#Cc1cc2c(Oc3ccccc3OCCn3ccc(=O)[nH]c3=O)cc(Cl)cc2[nH]1 [8f, 6-chloro-4-(2-(2-(2,4-dioxo-3,4-dihydropyrimidin-1(2H)-yl)ethoxy)phenoxy)-1H-indole-2-carbonitrile]",–,81 µM,–
"N#Cc1cc2c(Oc3cc(F)c(F)cc3OCCn3ccc(=O)[nH]c3=O)cccn2c1 [10k, 8-(2-(2-(2,4-dioxo-3,4-dihydropyrimidin-1(2H)-yl)ethoxy)-4,5-difluorophenoxy)indolizine-2-carbonitrile]",–,19 µM,–
"N#Cc1cc2c(Oc3ccccc3OCCn3ccc(=O)[nH]c3=O)cc(F)cn2c1 [10d, 8-(2-(2-(2,4-dioxo-3,4-dihydropyrimidin-1(2H)-yl)ethoxy)phenoxy)-6-fluoroindolizine-2-carbonitrile]",40 µM,–,–
"N#Cc1ccc2c(Oc3ccc(Cl)cc3OCCn3ccc(=O)[nH]c3=O)cccc2c1 [14j, 5-(4-chloro-2-(2-(2,4-dioxo-3,4-dihydropyrimidin-1(2H)-yl)ethoxy)phenoxy)-2-naphthonitrile]",> 100 µM,–,–
"N#Cc1cc2c(Oc3ccc(Cl)cc3OCCn3ccc(=O)[nH]c3=O)cccn2c1 [10m, 8-(4-chloro-2-(2-(2,4-dioxo-3,4-dihydropyrimidin-1(2H)-yl)ethoxy)phenoxy)indolizine-2-carbonitrile]",–,55 µM,–
"Cc1cc(Oc2ccccc2OCCn2ccc(=O)[nH]c2=O)c2cc(C#N)[nH]c2c1 [8e, 4-(2-(2-(2,4-dioxo-3,4-dihydropyrimidin-1(2H)-yl)ethoxy)phenoxy)-6-methyl-1H-indole-2-carbonitrile]",–,1.2 µM,–
"Cc1cc(Oc2ccc(F)cc2OCCn2ccc(=O)[nH]c2=O)c2cc(C#N)oc2c1 [12e, 4-(2-(2-(2,4-dioxo-3,4-dihydropyrimidin-1(2H)-yl)ethoxy)-4-fluorophenoxy)-6-methylbenzofuran-2-carbonitrile]",–,> 100 µM,–
"Cc1cc2c(Oc3ccccc3OCCn3ccc(=O)[nH]c3=O)cccn2c1 [10a, 1-(2-(2-((2-methylindolizin-8-yl)oxy)phenoxy)ethyl)pyrimidine-2,4(1H,3H)-dione]",–,9 µM,–
"N#Cc1ccc2c(Oc3ccc(Cl)cc3OCCn3ccc(=O)[nH]c3=O)cc(Cl)cc2c1 [14h, 7-chloro-5-(4-chloro-2-(2-(2,4-dioxo-3,4-dihydropyrimidin-1(2H)-yl)ethoxy)phenoxy)-2-naphthonitrile]",20 µM,–,–
"O=c1ccn(CCOc2ccccc2Oc2cccc3[nH]ccc23)c(=O)[nH]1 [8a, 1-(2-(2-((1H-indol-4-yl)oxy)phenoxy)ethyl)pyrimidine-2,4(1H,3H)-dione]",–,53 µM,–
"O=c1ccn(CCOc2cc(Cl)ccc2Oc2cccc3[nH]ccc23)c(=O)[nH]1 [8b, 1-(2-(2-((1H-indol-4-yl)oxy)-5-chlorophenoxy)ethyl)pyrimidine-2,4(1H,3H)-dione]",–,18 µM,–
"O=c1ccn(CCOc2ccccc2Oc2cc(Cl)cc3cc(Cl)ccc23)c(=O)[nH]1 [14d, 1-(2-(2-((3,6-dichloronaphthalen-1-yl)oxy)phenoxy)ethyl)pyrimidine-2,4(1H,3H)-dione]",45 µM,–,–
"Cc1ccc2c(Oc3ccccc3OCCn3ccc(=O)[nH]c3=O)cccc2c1 [14b, 1-(2-(2-((6-methylnaphthalen-1-yl)oxy)phenoxy)ethyl)pyrimidine-2,4(1H,3H)-dione]",40 µM,–,–
"Cc1cc2c(Oc3ccc(Cl)cc3OCCn3ccc(=O)[nH]c3=O)cccc2o1 [12g, 1-(2-(5-chloro-2-((2-methylbenzofuran-4-yl)oxy)phenoxy)ethyl)pyrimidine-2,4(1H,3H)-dione]",–,8 µM,–
"N#Cc1cc2c(Oc3cc(F)c(F)cc3OCCn3ccc(=O)[nH]c3=O)cc(F)cn2c1 [10l, 8-(2-(2-(2,4-dioxo-3,4-dihydropyrimidin-1(2H)-yl)ethoxy)-4,5-difluorophenoxy)-6-fluoroindolizine-2-carbonitrile]",–,54 µM,–
"N#Cc1cc2c(Oc3ccccc3OCCn3ccc(=O)[nH]c3=O)cc(Cl)cc2o1 [12c, 6-chloro-4-(2-(2-(2,4-dioxo-3,4-dihydropyrimidin-1(2H)-yl)ethoxy)phenoxy)benzofuran-2-carbonitrile]",> 100 µM,> 100 µM,–
"N#Cc1cc2c(Oc3ccc(Cl)cc3OCCn3ccc(=O)[nH]c3=O)cc(Cl)cn2c1 [10n, 6-chloro-8-(4-chloro-2-(2-(2,4-dioxo-3,4-dihydropyrimidin-1(2H)-yl)ethoxy)phenoxy)indolizine-2-carbonitrile]",–,20 µM,–
